Patent US10604534B2, “C5-C6-oxacyclic fused iminothiadiazine dioxide compounds bearing an ether linker as BACE inhibitors, compositions, and their use” (Merck Sharp & Dohme Corp., priority 2016, dated 2020)

What was measured:
[1] = target: purified human autoBACE-2 (Homo sapiens (Human), UniProt Q9Y5Z0); assay: BACE-2 Assay (BACE-HTRF assay); format: biochemical; conditions: Ki calculated from IC50 using the Cheng-Prusoff equation; QSY7-EISEVNLDAEFC-Eu-amide substrate, pH 5.0
Protocol: Inhibitor IC50s at purified human autoBACE-2 are determined in a time-resolved endpoint proteolysis assay that measures hydrolysis of the QSY7-EISEVNLDAEFC-Eu-amide FRET peptide substrate (BACE-HTRF assay). BACE-mediated hydrolysis of this peptide results in an increase in relative fluorescence (RFU) at 620 nm after excitation with 320 nm light. Inhibitor compounds, prepared at 3× the desired final concentration in 1×BACE assay buffer (20 mM sodium acetate pH 5.0, 10% glycerol, 0.1% Brij-35) supplemented with 7.5% DMSO are preincubated with an equal volume of autoBACE-2 enzyme diluted in 1×BACE assay buffer (final enzyme concentration 1 nM) in black 384-well NUNC plates for 30 minutes at 30° C. […] DMSO is present at 5% final concentration in the assay. Following laser excitation of sample wells at 320 nm, the fluorescence signal at 620 nm is collected for 400 ms following a […] on a RUBYstar HTRF plate reader (BMG Labtechnologies). Raw RFU data is normalized to maximum (1.0 nM BACE/DMSO) and minimum (no enzyme/DMSO) RFU values. IC50s are determined by nonlinear regression analysis (sigmoidal dose response, variable slope) of percent inhibition data with minimum and maximum values set to 0 and 100 percent respectively. Similar IC50s are obtained when using raw RFU data. The Ki values are calculated from the IC50 using the Cheng-Prusoff equation.

[2] = target: soluble human BACE1 catalytic domain (Homo sapiens (Human), UniProt P56817); assay: BACE1 HTRF FRET Assay; format: biochemical; conditions: Ki calculated from IC50 using the Cheng-Prusoff equation; QSY7-APPswe-Eu substrate, pH 5.0; read-out: BACE-1 Ki
Chain of soluble human BACE1 catalytic domain (P56817 75-416): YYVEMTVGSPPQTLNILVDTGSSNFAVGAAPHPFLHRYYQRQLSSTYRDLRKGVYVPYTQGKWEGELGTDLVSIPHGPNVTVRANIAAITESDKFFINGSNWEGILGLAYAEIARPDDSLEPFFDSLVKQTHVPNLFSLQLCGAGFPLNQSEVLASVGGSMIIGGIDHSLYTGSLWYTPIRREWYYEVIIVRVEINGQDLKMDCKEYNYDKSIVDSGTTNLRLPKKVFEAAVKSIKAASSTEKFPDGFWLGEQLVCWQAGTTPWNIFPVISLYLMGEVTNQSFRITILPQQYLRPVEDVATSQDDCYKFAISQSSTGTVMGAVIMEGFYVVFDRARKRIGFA
Text: • Reagents: Na^+-Acetate pH 5.0; 1% Brij-35; Glycerol; Dimethyl Sulfoxide (DMSO); Recombinant human soluble BACE1 catalytic domain (>95% pure); APP Swedish mutant peptide substrate (QSY7-APP^swe-Eu): QSY7-EISEVNLDAEFC-Europium-amide.
A homogeneous time-resolved FRET assay can be used to determine IC50 values for inhibitors of the soluble human BACE1 catalytic domain. This assay monitors the increase of 620 nm fluorescence that resulted from BACE1 cleavage of an APPswedish APP^swe mutant peptide FRET substrate (QSY7-EISEVNLDAEFC-Europium-amide). This substrate contains an N-terminal QSY7 moiety that serves as a quencher of the C-terminal Europium fluorophore (620 nm Em). In the absence of enzyme activity, 620 nm fluorescence is low in the assay and increased linearly over 3 hours in the presence of uninhibited BACE1 enzyme. Inhibition of BACE1 cleavage of the QSY7-APP^swe-Eu substrate by inhibitors is manifested as a suppression of 620 nm fluorescence.
Varying concentrations of inhibitors at 3× the final desired concentration in a volume of 10 ul are preincubated with purified human BACE1 catalytic domain (3 nM in 10 μl) for 30 minutes at 30° C. in reaction buffer containing 20 mM Na-Acetate pH 5.0, 10% glycerol, 0.1% Brij-35 and 7.5% DSMO. Reactions are initiated by addition of 10 μl of 600 nM QSY7-APP^swe-Eu substrate (200 nM final) to give a final reaction volume of 30 μl in a 384 well Nunc HTRF plate. The reactions are incubated at 30° C. for 1.5 hours. The 620 nm fluorescence is then read on a Rubystar HTRF plate reader (BMG Labtechnologies) using a 50 millisecond delay followed by a 400 millisecond acquisition time window. Inhibitor IC50 values are derived from non-linear regression analysis of concentration response curves. Ki values are then calculated from IC50 values using the Cheng-Prusoff equation using a previously determined m value of […] for the QSY7-APP^swe-Eu substrate at BACE1.

Chain of purified human autoBACE-2 (Q9Y5Z0 63-473): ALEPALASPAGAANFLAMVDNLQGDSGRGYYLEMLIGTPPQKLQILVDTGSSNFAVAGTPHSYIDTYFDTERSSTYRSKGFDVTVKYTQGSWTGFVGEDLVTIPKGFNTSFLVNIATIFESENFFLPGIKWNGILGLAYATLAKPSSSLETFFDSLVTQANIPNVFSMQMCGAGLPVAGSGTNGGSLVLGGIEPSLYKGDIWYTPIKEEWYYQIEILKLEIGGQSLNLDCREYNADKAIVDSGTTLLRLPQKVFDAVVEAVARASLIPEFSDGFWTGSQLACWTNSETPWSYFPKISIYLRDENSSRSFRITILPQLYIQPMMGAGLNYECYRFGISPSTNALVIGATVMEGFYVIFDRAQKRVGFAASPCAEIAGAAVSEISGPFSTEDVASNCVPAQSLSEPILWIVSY

| Ki [1] [nM] | Ki [2] [nM] | Structure (SMILES) |
| --- | --- | --- |
| 1.6 | 3.4 | C[C@H]1C[C@@H]2[C@](c3cc(Oc4ncccc4F)ccc3F)(CO1)NC(=N)N(C)S2(=O)=O [Example 1, (4aS,7S,8aR)-4a-(2-fluoro-5-((3-fluoropyridin-2-yl)oxy)phenyl)-3-imino-2,7-dimethyloctahydropyrano[3,4-e][1,2,4]thiadiazine 1,1-dioxide] |
| 2.3 | 2.7 | C[C@H]1C[C@@H]2[C@](c3cc(Oc4cc(C#N)ccn4)ccc3F)(CO1)NC(=N)N(C)S2(=O)=O [Example 3, 2-(4-fluoro-3-((4aS,7S,8aR)-3-imino-2,7-dimethyl-1,1-dioxidooctahydropyrano[3,4-e][1,2,4]thiadiazin-4a-yl)phenoxy)isonicotinonitrile] |
| 5.9 | 12 | C[C@H]1C[C@@H]2[C@](c3cc(Oc4ncncc4F)ccc3F)(CO1)NC(=N)N(C)S2(=O)=O [Example 4, (4aS,7S,8aR)-4a-(2-fluoro-5-((5-fluoropyrimidin-4-yl)oxy)phenyl)-3-imino-2,7-dimethyloctahydropyrano[3,4-e][1,2,4]thiadiazine 1,1-dioxide] |
| 13 | 25 | C[C@H]1C[C@@H]2[C@](c3cc(Oc4ncc(F)cc4F)ccc3F)(CO1)NC(=N)N(C)S2(=O)=O [Example 5, (4aS,7S,8aR)-4a-(5-((3,5-difluoropyridin-2-yl)oxy)-2-fluorophenyl)-3-imino-2,7-dimethyloctahydropyrano[3,4-e][1,2,4]thiadiazine 1,1-dioxide] |
| 15 | 7.1 | C[C@H]1C[C@@H]2[C@](c3cc(Oc4cc(F)cnc4F)ccc3F)(CO1)NC(=N)N(C)S2(=O)=O [Example 6, (4aS,7S,8aR)-4a-(5-((2,5-difluoropyridin-3-yl)oxy)-2-fluorophenyl)-3-imino-2,7-dimethyloctahydropyrano[3,4-e][1,2,4]thiadiazine 1,1-dioxide] |
| 4.3 | 28 | C[C@H]1C[C@@H]2[C@](c3cc(OCC4CC4)ccc3F)(CO1)NC(=N)N(C)S2(=O)=O [Example 7, (4aS,7S,8aR)-4a-(5-(cyclopropylmethoxy)-2-fluorophenyl)-3-imino-2,7-dimethyloctahydropyrano[3,4-e][1,2,4]thiadiazine 1,1-dioxide] |
| 28 | 9.1 | C[C@H]1C[C@@H]2[C@](c3cc(OCC45CC(C#N)(C4)C5)ccc3F)(CO1)NC(=N)N(C)S2(=O)=O [Example 8, 3-((4-fluoro-3-((4aS,7S,8aR)-3-imino-2,7-dimethyl-1,1-dioxidooctahydropyrano[3,4-e][1,2,4]thiadiazin-4a-yl)phenoxy)methyl)bicyclo[1.1.1]pentane-1-carbonitrile] |
| 9.4 | 4.6 | COC[C@H]1C[C@@H]2[C@](c3cc(Oc4cncc(OC)n4)ccc3F)(CO1)NC(=N)N(C)S2(=O)=O [Example 9, (4aS,7R,8aR)-4a-(2-fluoro-5-((6-methoxypyrazin-2-yl)oxy)phenyl)-3-imino-7-(methoxymethyl)-2-methyloctahydropyrano[3,4-e][1,2,4]thiadiazine 1,1-dioxide] |
| 3.4 | 1.9 | COC[C@H]1C[C@@H]2[C@](c3cc(Oc4cc(C#N)ccn4)ccc3F)(CO1)NC(=N)N(C)S2(=O)=O [Example 10, 2-(4-fluoro-3-((4aS,7R,8aR)-3-imino-7-(methoxymethyl)-2-methyl-1,1-dioxidooctahydropyrano[3,4-e][1,2,4]thiadiazin-4a-yl)phenoxy)isonicotinonitrile] |
| 4.5 | 5.9 | COC[C@H]1C[C@@H]2[C@](c3cc(Oc4ncncc4F)ccc3F)(CO1)NC(=N)N(C)S2(=O)=O [Example 11, (4aS,7R,8aR)-4a-(2-fluoro-5-((5-fluoropyrimidin-4-yl)oxy)phenyl)-3-imino-7-(methoxymethyl)-2-methyloctahydropyrano[3,4-e][1,2,4]thiadiazine 1,1-dioxide] |
| 18 | 20 | COC[C@H]1C[C@@H]2[C@](c3cc(Oc4ncc(F)cc4F)ccc3F)(CO1)NC(=N)N(C)S2(=O)=O [Example 12, (4aS,7R,8aR)-4a-(5-((3,5-difluoropyridin-2-yl)oxy)-2-fluorophenyl)-3-imino-7-(methoxymethyl)-2-methyloctahydropyrano[3,4-e][1,2,4]thiadiazine 1,1-dioxide] |
| 10 | 2.1 | COC[C@H]1C[C@@H]2[C@](c3cc(Oc4cc(F)cnc4F)ccc3F)(CO1)NC(=N)N(C)S2(=O)=O [Example 13, (4aS,7R,8aR)-4a-(5-((2,5-difluoropyridin-3-yl)oxy)-2-fluorophenyl)-3-imino-7-(methoxymethyl)-2-methyloctahydropyrano[3,4-e][1,2,4]thiadiazine 1,1-dioxide] |
| 2 | 7.9 | COC[C@H]1C[C@@H]2[C@](c3cc(OCC4CC4)ccc3F)(CO1)NC(=N)N(C)S2(=O)=O [Example 14, (4aS,7R,8aR)-4a-(5-(cyclopropylmethoxy)-2-fluorophenyl)-3-imino-7-(methoxymethyl)-2-methyloctahydropyrano[3,4-e][1,2,4]thiadiazine 1,1-dioxide] |
| 28 | 9.1 | COC[C@H]1C[C@@H]2[C@](c3cc(OCC45CC(C#N)(C4)C5)ccc3F)(CO1)NC(=N)N(C)S2(=O)=O [Example 15, 3-((4-fluoro-3-((4aS,7R,8aR)-3-imino-7-(methoxymethyl)-2-methyl-1,1-dioxidooctahydropyrano[3,4-e][1,2,4]thiadiazin-4a-yl)phenoxy)methyl)bicyclo[1.1.1]pentane-1-carbonitrile] |
| 52 | 39 | COC[C@H]1C[C@@H]2[C@](c3cc(Oc4cccnc4)ccc3F)(CO1)NC(=N)N(C)S2(=O)=O [Example 16, (4aS,7R,8aR)-4a-(2-fluoro-5-(pyridin-3-yloxy)phenyl)-3-imino-7-(methoxymethyl)-2-methyloctahydropyrano[3,4-e][1,2,4]thiadiazine 1,1-dioxide] |
| 6.9 | 4.3 | COC[C@H]1C[C@@H]2[C@](c3cc(Oc4cccc(C#N)c4)ccc3F)(CO1)NC(=N)N(C)S2(=O)=O [Example 17, 3-(4-fluoro-3-((4aS,7R,8aR)-3-imino-7-(methoxymethyl)-2-methyl-1,1-dioxidooctahydropyrano[3,4-e][1,2,4]thiadiazin-4a-yl)phenoxy)benzonitrile] |
| 89 | 203 | COC[C@H]1C[C@@H]2[C@](c3cc(Oc4cnccc4Cl)ccc3F)(CO1)NC(=N)N(C)S2(=O)=O [Example 19, (4aS,7R,8aR)-4a-(5-((4-chloropyridin-3-yl)oxy)-2-fluorophenyl)-3-imino-7-(methoxymethyl)-2-methyloctahydropyrano[3,4-e][1,2,4]thiadiazine 1,1-dioxide] |
